{
  "source": "patent US20220323761A1",
  "about": "“METHOD FOR INDUCING HIBERNATION-LIKE STATE AND DEVICE SAME” (University of Tsukuba, priority 2019, published 2022)",
  "key": {"hM3Dq in Q-neurons [1]": {"target": "T1, hM3Dq in Q-neurons (Homo sapiens, UniProt P20309, A239G/Y149C)", "T1 construct": "mCherry (C); expressed in transfected cells; host or cells: QRFP-producing (Q) neurons of Qrfp-iCre mice transduced in vivo with AAV10-EF1α-DIO-hM3Dq-mCherry", "T1 sequence (P20309 whole entry Y149C/A239G, the tested form may be a part)": "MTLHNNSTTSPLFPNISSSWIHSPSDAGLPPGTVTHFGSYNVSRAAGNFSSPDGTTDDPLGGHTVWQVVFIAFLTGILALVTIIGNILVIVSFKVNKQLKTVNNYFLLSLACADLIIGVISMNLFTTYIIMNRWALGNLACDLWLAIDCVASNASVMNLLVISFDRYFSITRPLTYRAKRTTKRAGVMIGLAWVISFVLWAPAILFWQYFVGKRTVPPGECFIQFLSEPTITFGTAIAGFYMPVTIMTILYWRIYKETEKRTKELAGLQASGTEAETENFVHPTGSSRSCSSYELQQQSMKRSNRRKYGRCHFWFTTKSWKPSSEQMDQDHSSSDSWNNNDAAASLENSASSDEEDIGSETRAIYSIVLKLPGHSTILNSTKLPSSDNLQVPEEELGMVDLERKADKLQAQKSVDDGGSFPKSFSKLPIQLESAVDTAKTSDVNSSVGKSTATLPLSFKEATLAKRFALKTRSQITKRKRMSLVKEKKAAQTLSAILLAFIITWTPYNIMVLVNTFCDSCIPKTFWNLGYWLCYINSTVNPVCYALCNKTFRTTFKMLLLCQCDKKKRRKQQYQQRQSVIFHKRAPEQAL", "assay": "Estimation of thermoregulatory parameters G, H and TR during CNO-induced QIH in Q-hM3D mice", "type": "in vivo", "description": "(§1) In order to record the core body temperature, oxygen consumption amount, EEG, ECG, and respiratory patterns, each animal was housed in a temperature controlled chamber (HC-100, Shin Factory or LP-400P-AR, Nippon Medical & Chemical Instruments Co., Ltd.). In order to continuously record the TB (intraperitoneal temperature), a telemetry temperature sensor (TA11TA-F10, DSI) was implanted into the animal's abdominal cavity under general inhalation anesthesia at least 7 days prior to the recording. The VO 2 and carbon dioxide discharge rate (VCO2) of the animal were continuously recorded using a respiratory gas analyzer (ARCO-2000 mass spectrometer, ARCO System). The respiratory quotient was calculated from the ratio of VCO2/VO2.\n(§2) The Dreadd agonist CNO (clozapine N-oxide, Abcam, ab141704) was dissolved in physiological saline at a dose of 100 μg/mL, and the solution was frozen at −20° C. The CNO solution was thawed on site and then administered to each mouse intraperitoneally at a dose of 1 mg/kg. The adenosineAl receptor agonist CHA (N^6-cyclohexyl adenosine, Sigma-Aldrich, C9901) was dissolved in physiological saline at a concentration of 250 μg/mL, and the solution was administered intraperitoneally to each mouse at a dose of 2.5 mg/kg.\nTo evaluate the thermoregulatory system under QIH and normal conditions, the heat loss and heat production of the animals were described in a hierarchical multilayer model (FIG. 3c to FIG. 3k, code folder QIH_GTRH). Three parameters of G, TR and H under two metabolic conditions, that is, normal and QIH conditions, were estimated from a metabolically stable state of the animals at various TAs. The detailed method has been previously described^3. In summary, a linear model formed from the controllable parameter TA and the observable parameters TB and VO2 was fitted to the experimental results for both TB and VO2 using TA as a predictor having normal distribution noise. Next, G, TR, and H were estimated using the post-distribution of the slope and intercept coefficients for each model. […]"}, "hM3Dq in Q-neurons [2]": {"target": "T1, hM3Dq in Q-neurons", "assay": "Body temperature, respiratory gas, ECG, EEG, respiration and serum analysis of Q-hM3D mice after IP CNO (QIH)", "type": "in vivo", "description": "as §1\nThe EEG and ECG were recorded using a implanted remote measurement transmitter (F20-EET or HD-X02, DSI). For EEG recording, two stainless steel screws (1 mm in diameter) were soldered to a wire of a telemetry transmitter and inserted under general anesthesia through the skull of the cortex (AP, 1.00 mm; right, 1.50 mm from bregma or lambda). Two other wires from the transmitter were placed on the surface of the thoractic cavity, and an ECG was recorded. The mice were allowed to recover from surgery for at least 10 days. An EEG/ECG data collecting system consisted of transmitters, an analog-digital converter and a recording computer with the software Ponemah Physiology Platform (version 6.30, DSI). The sampling rate was 500 Hz for both the EEG and the ECG, and the data was converted into ASCII format for review. The heart rate was evaluated through a visual inspection of the waveform.\nThe respiratory flow was recorded using a non-invasive respiratory flow recording system^35. Specifically, a mouse was placed in metabolic chamber (TMC-1213-PMMA, Minamiderika Shokai) having an air flow of at least 0.3 L/min. The chamber was connected to a pressure sensor (PMD-8203-3G, Biotex), and the pressure difference between the outside and inside of the chamber was detected. If the animal is breathing, the pressure difference from the outside to the inside increases during inhalation and decreases during exhalation^35. An analog signal output from the sensor was converted to a digital signal by an AD converter (NI-9205, National Instruments) at 250 Hz, and stored in a computer using data logging software developed by Biotex Inc.\nas §2\nBlood was collected from the mice under anesthesia through a left ventricular puncture using a 25 gauge needle. The collected blood was stored on ice for less than 2 hours. The sample was centrifuged at 2000 G for 10 minutes at 4° C., and the supernatant was collected and frozen at −30° C. The frozen serum specimens were sent to FUJIFILM Wako Pure Chemical Corporation, and the concentrations of Na (mEq/L), K (mEq/L), Cl (mEq/L), AST (IU/L), ALT (IU/L) LDH (IU/L), CK (IU/L), GLU (mg/dL), and total ketone bodies (μmol/L) were measured."}},
  "data": [
    {"smiles": "C[N+]1([O-])CCN(C2=Nc3cc(Cl)ccc3Nc3ccccc32)CC1", "note": "[CNO, clozapine N-oxide]", "values": [
      {"measurement": "reduction in H at each median", "setting": "hM3Dq in Q-neurons [1]; QIH versus normal state", "value": 95.3, "unit": "%"},
      {"measurement": "TB and VO2 versus control at every TA", "setting": "hM3Dq in Q-neurons [1]; eleven hours after IP injection, TA 8-32° C.", "value": "low TB and VO2"},
      {"measurement": "difference in TR at each median", "setting": "hM3Dq in Q-neurons [1]; normal versus QIH", "value": 8.41, "unit": "°C"},
      {"measurement": "duration of extremely low TB state (below 30° C.)", "setting": "hM3Dq in Q-neurons [2]; IP injection, Q-hM3D mice", "value": "≥ 48", "unit": "h"},
      {"measurement": "hypothermia compared with Qrfp-iCre; Rosa26^dreaddm3 mice", "setting": "hM3Dq in Q-neurons [2]; IP injection, Q-hM3D mice", "value": "deeper, longer sustained hypothermia"},
      {"measurement": "QIH after repeated injections in the same mice", "setting": "hM3Dq in Q-neurons [2]; Q-hM3D mice", "value": "reproducible"},
      {"measurement": "condition of mice after recovery from QIH", "setting": "hM3Dq in Q-neurons [2]; Q-hM3D mice", "value": "healthy"},
      {"measurement": "electroencephalogram (EEG) in QIH", "setting": "hM3Dq in Q-neurons [2]; Q-hM3D mice", "value": "very low amplitude"},
      {"measurement": "induction of QIH", "setting": "hM3Dq in Q-neurons [2]; Q-hM3D mice", "value": "effectively induces QIH"},
      {"measurement": "tail temperature", "setting": "hM3Dq in Q-neurons [2]; Q-hM3D mice, 0.5 hours after IP CNO", "value": "increases"},
      {"measurement": "O2 consumption rate (VO2) change", "setting": "hM3Dq in Q-neurons [2]; Q-hM3D mice, CNO-induced hypothermic state", "value": "significant reduction"},
      {"measurement": "TB change after administration", "setting": "hM3Dq in Q-neurons [2]; Q-hM3D mice, concurrently with Ts", "value": "decreases"},
      {"measurement": "duration of QIH with TB of less than 30° C.", "setting": "hM3Dq in Q-neurons [2]; TA=20° C., one dose 1 mg/kg", "value": "≥ 48", "unit": "h"},
      {"measurement": "time for VO2 to fully return to normal", "setting": "hM3Dq in Q-neurons [2]; TA=20° C., one dose 1 mg/kg", "value": "about 1 week"},
      {"measurement": "posture during QIH", "setting": "hM3Dq in Q-neurons [2]; TA=28° C., Q-hM3D mice, n=4", "value": "extended posture"},
      {"measurement": "blood glucose levels in QIH", "setting": "hM3Dq in Q-neurons [2]; blood serum chemical data", "value": "reduced"},
      {"measurement": "effect of CNO on TB with TeTxLC co-expressed in Q-neurons", "setting": "hM3Dq in Q-neurons [2]; simultaneous infusion of AAV2/9-hSyn-DIO-TeTxLC-eYFP and AAV10-EF1α-DIO-hM3Dq-mCherry", "value": "completely eliminated"},
      {"measurement": "heart rate", "setting": "hM3Dq in Q-neurons [2]; two hours after CNO injection, average of n=3, 758 two hours prior", "value": 215, "unit": "beats/min"},
      {"measurement": "VO2", "setting": "hM3Dq in Q-neurons [2]; two hours after CNO injection, 3.60 prior", "value": 1.17, "unit": "mL/g/h"},
      {"measurement": "respiratory rate", "setting": "hM3Dq in Q-neurons [2]; two hours after CNO injection, 333 prior", "value": "undetectable"}
    ]}
  ]
}
